Patent US20220040129A1, “TREATMENT OF HYPERAMMONEMIA IN PATIENTS WITH RENAL INSUFFICIENCY” (RECORDATI S.p.A., priority 2019, published 2022)

Experiments:
CYP2C9 = CYP2C9 (Homo sapiens, UniProt P11712); assay: In vitro CYP inhibition; assay type: in vitro ADME
CYP2C19 = CYP2C19 (Homo sapiens, UniProt P33261); assay: In vitro CYP inhibition; assay type: in vitro ADME
clinical = conditions: human, in vivo; for CL renal / clearance / half-life / Vd: both sexes; for clearance: Cl
Experimental: The levels of CGA in plasma and urine were analysed using a fully validated method, which included LC-MS/MS analysis. The PK data were analysed based on a non-compartmental model. A model-based approach was implemented for the characterization of the PK properties of the IV formulation in order to estimate the level of PK exposure after different doses administered with different duration of infusion. The model outcomes provided rationales for supporting decision-making through the dose escalation process. The PK parameters were determined using SAS (version 9.3), and modelling of the PK data was performed using NONMEM (version 7.3, ICON Solutions). PART A: Mono-Centre, Randomized, Successive Groups, Double-Blind, Placebo-Controlled Study in Healthy Male and Female Subjects
Part C was a randomized, double-blind, placebo-controlled study. It was conducted in five successive cohorts of 8 healthy male or female subjects each, for a total of 40 subjects. For each of the five cohorts, 6 subjects were administered CGA and 2 subjects received placebo. The study medication was administered IV, first as a loading dose and then as a maintenance dose. The dosage regimen was determined based both on the results of Part A and PK modelling.
For the first three cohorts, three ascending doses of the study medication were administered IV as loading doses of 2.0, 3.0, and 3.6 mg/kg for 20 minutes, respectively, followed by maintenance doses of 2.5, 3.75 and 4.5 mg/kg/h given by IV infusion over a period of […]. For the fourth cohort, a dose of the IV formulation of CGA determined as being well tolerated was administered as a loading dose by IV infusion over 20 minutes, followed by a maintenance dose administered by IV infusion over a period of up to 12 hours. The 5th cohort received the study medication at the same dose and under the same conditions as the 4th cohort, except for the period during which the maintenance dose was administered, which lasted up to 24 hours.
Blood sample for PK measurements were collected at 18 timepoints for the first three cohorts, and 20 timepoints for the 4th and 5th cohorts. These included a sample preceding the administration of the study medication, and the period from 20 minutes to 48 hours following the initiation of the IV infusion. Urine was also collected for PK measurements at the following intervals relative to the time of initiation of the IV infusion: 0-6, 6-12, 12-24, 24-36, and 36-48 hours. […]

[1] = PK study comparing oral to IV CARBAGLU in 36 healthy volunteers; assay type: in vivo, human
plasma ammonia = assay: Retrospective review of NAGS deficiency patients: plasma ammonia levels; assay type: in vivo, human; conditions: for Plasma ammonia, Mean (SD) / Plasma ammonia, Median / Plasma ammonia, Range: NAGS deficiency patients
Experimental: Treatment with carglumic acid was divided in two regimens. For acute treatment, patients received a total daily dose of 100 mg/kg/day to 250 mg/kg/per day primarily administered in 2 to 4 divided doses for the first few days of treatment. For maintenance treatment, the dosage was reduced over time based on plasma ammonia level and clinical responses.
Short-term efficacy was evaluated using mean and median change in plasma ammonia levels from baseline to days 1 to 3. Persistence of efficacy was evaluated using long-term mean and median change in plasma ammonia level.
All 13 patients had abnormal plasma ammonia levels at baseline. […] Long-term efficacy was measured using the last reported plasma ammonia level for each of the 13 patients analyzed (median length of treatment was 6 years; range 1 to 16 years). The mean and median plasma ammonia levels were 23 micromol/L and 24 micromol/L, respectively, after a mean treatment duration of 8 years (Table 5).

[2] = Long-term (mean 8 years), last available value on treatment

Chain of CYP2C9 (P11712 whole entry): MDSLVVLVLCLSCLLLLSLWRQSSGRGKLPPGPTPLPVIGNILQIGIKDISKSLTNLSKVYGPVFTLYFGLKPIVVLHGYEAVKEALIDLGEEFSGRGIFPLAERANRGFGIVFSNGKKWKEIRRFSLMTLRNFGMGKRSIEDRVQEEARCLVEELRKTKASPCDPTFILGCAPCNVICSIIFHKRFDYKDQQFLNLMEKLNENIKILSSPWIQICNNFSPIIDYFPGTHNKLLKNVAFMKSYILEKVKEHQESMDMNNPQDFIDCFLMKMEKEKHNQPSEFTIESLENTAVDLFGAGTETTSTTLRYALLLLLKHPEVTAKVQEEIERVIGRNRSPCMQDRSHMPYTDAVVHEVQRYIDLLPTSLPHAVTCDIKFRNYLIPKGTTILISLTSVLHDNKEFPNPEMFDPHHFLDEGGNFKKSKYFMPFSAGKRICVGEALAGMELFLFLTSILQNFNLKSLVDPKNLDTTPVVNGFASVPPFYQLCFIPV
Chain of CYP2C19 (P33261 whole entry): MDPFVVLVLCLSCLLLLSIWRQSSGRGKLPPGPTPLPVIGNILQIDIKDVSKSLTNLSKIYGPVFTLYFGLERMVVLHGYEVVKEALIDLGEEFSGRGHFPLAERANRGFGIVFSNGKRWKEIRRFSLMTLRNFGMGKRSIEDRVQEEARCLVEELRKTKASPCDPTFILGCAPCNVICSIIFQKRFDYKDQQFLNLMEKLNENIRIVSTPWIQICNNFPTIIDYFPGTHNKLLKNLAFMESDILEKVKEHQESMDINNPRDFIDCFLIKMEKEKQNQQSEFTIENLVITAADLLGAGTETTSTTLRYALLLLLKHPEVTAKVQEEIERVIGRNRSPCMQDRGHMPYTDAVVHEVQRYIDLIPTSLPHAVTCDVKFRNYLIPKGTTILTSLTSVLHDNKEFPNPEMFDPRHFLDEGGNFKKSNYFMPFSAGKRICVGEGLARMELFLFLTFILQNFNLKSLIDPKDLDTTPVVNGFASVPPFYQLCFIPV

NC(=O)N[C@@H](CCC(=O)O)C(=O)O [carglumic acid, N-carbamoyl-L-glutamic acid]
Inhibition of CYP2C9 (CYP2C9): not an inhibitor | Inhibition of CYP2C19 (CYP2C19): not an inhibitor | CL renal (clinical; iv, Average renal clearance): 4.83 mL/min/kg | clearance (clinical; iv, Mean): 5.33 mL/min/kg | clearance (clinical; iv, Median): 5.27 mL/min/kg | half-life (clinical; iv, Mean): 28.4 h | half-life (clinical; iv, Median): 28.5 h | CL renal (clinical; iv, Renal Clearance, Mean): 4.83 mL/min/kg | CL renal (clinical; iv, Renal Clearance, Median): 4.98 mL/min/kg | Vd (clinical; iv, Mean): 13 L/kg | Vd (clinical; iv, Median): 12.8 L/kg | Ae (% of the dose excreted), Max (clinical; both, iv): 111.412% | Ae (% of the dose excreted), Mean (clinical; both, iv): 84.478% | Ae (% of the dose excreted), Median (clinical; both, iv): 86.924% | Ae (% of the dose excreted), Min (clinical; both, iv): 38.756% | Cl, Max (clinical; both, iv): 7.3 mL/min/kg | Cl, Min (clinical; both, iv): 3.2 mL/min/kg | Half-life, Max (clinical; both, iv): 39.987 h | Half-life, Min (clinical; both, iv): 13.598 h | Renal Clearance, Max (clinical; both, iv): 8.5 mL/min/kg | Renal Clearance, Min (clinical; both, iv): 1.93 mL/min/kg | Vd, Max (clinical; both, iv): 19.689 L/kg | Vd, Min (clinical; both, iv): 3.897 L/kg | Dose dependence of AUCinf, AUClast and Cmax (clinical): increased linearly | Mean fraction of the dose excreted in the urine ([1]; after IV administration): 90% | Mean fraction of the dose excreted in the urine ([1]; after oral administration): 7.5% | bioavailability ([1]; human, in vivo, oral vs IV, 36 healthy volunteers, read-out: Mean absolute bioavailability): 9.87% | Differences in clinical response between adults and pediatric NAGS deficiency patients (plasma ammonia; 23 NAGS deficiency patients): no apparent differences | Plasma ammonia, Mean (SD) (plasma ammonia; Day 1 of treatment): 181 (358) micromole/L | Plasma ammonia, Median (plasma ammonia; Day 1 of treatment): 65 µmol/L | Plasma ammonia, Range (plasma ammonia; Day 1 of treatment): 25 to 1190 µmol/L | Plasma ammonia, Mean (SD) (plasma ammonia; Day 2 of treatment): 69 (78) micromole/L | Plasma ammonia, Median (plasma ammonia; Day 2 of treatment): 44 µmol/L | Plasma ammonia, Range (plasma ammonia; Day 2 of treatment): 11 to 255 µmol/L | Plasma ammonia, Mean (SD) (plasma ammonia; Day 3 of treatment): 27 (11) micromole/L | Plasma ammonia, Median (plasma ammonia; Day 3 of treatment): 25 µmol/L | Plasma ammonia, Range (plasma ammonia; Day 3 of treatment): 12 to 42 µmol/L | Plasma ammonia, Mean (SD) (plasma ammonia; [2]): 23 µmol/L | Plasma ammonia, Median (plasma ammonia; [2]): 24 µmol/L | Plasma ammonia, Range (plasma ammonia; [2]): 9 to 34 µmol/L | Plasma ammonia, Mean (SD) (plasma ammonia; Long-term (mean 8 years), last available value on treatment, listed as Carglumic Acid): 23 (7) micromole/L | Plasma ammonia levels by day 3 (plasma ammonia; patients for whom data were available, normal range 5 to 50 micromol/L): normal plasma ammonia levels were attained
